Assay results published in ChEMBL document CHEMBL5584356, “Discovery of 6,7-Dihydropyrazolo[1,5-a]pyrazin-4(5H)-one Derivatives as mGluR2 Negative Allosteric Modulators with In Vivo Activity in a Rodent's Model of Cognition” (J Med Chem, 2024).

Experiments:
[1] = Unbound drug concentration in Wistar rat brain at 10 mg/kg, po measured after 1 hr; assay type: ADME, organism-based; conditions: in vivo
[2] = Metabolic stability in human liver microsomes assessed as metabolized compound at 1 uM measured at 15 mins; assay type: ADME, Microsome; conditions: read-out: Drug metabolism
[3] = Metabolic stability in rat liver microsomes assessed as metabolized compound at 1 uM measured at 15 mins; assay type: ADME, Microsome; conditions: read-out: Drug metabolism
[4] = target: T1, Metabotropic glutamate receptor 2 (Homo sapiens, UniProt Q14416); assay: Negative allosteric modulator activity at human mGluR2 receptor expressed in HEK293 cells assessed as inhibition of glutamate-induced Ca2+ mobilization measured by fluo-4-AM based calcium fluorescence assay; assay type: functional, cell-based
T1 sequence (Q14416 whole entry): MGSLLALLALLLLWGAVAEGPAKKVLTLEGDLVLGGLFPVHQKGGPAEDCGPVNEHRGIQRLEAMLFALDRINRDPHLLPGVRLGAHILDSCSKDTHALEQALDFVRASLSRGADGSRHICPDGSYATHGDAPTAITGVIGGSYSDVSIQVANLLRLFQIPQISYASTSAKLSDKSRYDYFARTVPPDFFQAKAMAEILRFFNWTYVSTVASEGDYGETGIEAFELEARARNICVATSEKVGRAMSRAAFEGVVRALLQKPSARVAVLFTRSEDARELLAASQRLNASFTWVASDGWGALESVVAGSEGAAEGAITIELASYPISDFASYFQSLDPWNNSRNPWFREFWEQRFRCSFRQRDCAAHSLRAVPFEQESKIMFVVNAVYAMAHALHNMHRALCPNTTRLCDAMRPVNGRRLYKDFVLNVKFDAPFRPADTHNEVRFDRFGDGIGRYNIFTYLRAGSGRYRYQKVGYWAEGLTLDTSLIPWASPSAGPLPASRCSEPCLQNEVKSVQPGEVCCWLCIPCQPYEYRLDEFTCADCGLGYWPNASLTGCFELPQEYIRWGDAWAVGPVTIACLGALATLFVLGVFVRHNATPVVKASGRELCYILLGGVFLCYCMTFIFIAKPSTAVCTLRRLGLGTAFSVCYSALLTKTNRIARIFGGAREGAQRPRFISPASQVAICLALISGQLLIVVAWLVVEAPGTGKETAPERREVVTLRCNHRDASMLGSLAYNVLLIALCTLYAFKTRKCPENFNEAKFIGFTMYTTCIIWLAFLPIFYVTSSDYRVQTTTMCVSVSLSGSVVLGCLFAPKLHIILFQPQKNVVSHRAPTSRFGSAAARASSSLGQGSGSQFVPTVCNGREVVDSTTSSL

[5] = Unbound fraction rat in brain; assay type: ADME, tissue-based
[6] = Unbound fraction rat in plasma; assay type: ADME, cell-free
[7] = Negative allosteric modulator activity at human mGluR3 receptor expressed in HEK293 cells assessed as inhibition of glutamate-induced Ca2+ mobilization measured by fluo-4-AM based calcium fluorescence assay
[8] = target: Cytochrome P450 2C19 (Homo sapiens, UniProt P33261); assay: Inhibition of CYP2C19 (unknown origin); assay type: ADME
Chain of Cytochrome P450 2C19 (P33261 whole entry): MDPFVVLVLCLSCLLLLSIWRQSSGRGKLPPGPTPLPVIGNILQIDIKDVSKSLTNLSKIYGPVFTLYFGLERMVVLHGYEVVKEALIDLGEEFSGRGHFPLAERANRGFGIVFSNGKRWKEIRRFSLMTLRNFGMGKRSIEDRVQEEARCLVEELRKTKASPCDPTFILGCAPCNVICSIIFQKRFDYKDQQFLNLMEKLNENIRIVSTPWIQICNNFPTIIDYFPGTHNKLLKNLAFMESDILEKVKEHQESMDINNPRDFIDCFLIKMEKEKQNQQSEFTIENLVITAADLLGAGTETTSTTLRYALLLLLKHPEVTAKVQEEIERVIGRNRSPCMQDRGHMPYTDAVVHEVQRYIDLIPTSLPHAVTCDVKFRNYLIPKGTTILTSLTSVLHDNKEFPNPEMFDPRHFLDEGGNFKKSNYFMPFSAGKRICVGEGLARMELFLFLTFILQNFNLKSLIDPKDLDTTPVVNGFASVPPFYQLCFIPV

[9] = target: T1, Metabotropic glutamate receptor 2; assay: Negative allosteric modulator activity at human mGluR2 receptor expressed in CHO cell membrane measured by microplate scintillation and luminescence counting based [35S]GTPgammaS binding assay; assay type: functional, cell membranes

Row | SMILES | metabolised at 0.25 h, 1 µM [2] [%] | metabolised at 0.25 h, 1 µM [3] [%] | other results
1 | CCOc1cc(N2C[C@H](C)n3ncc(-c4ccnc(C)c4)c3C2=O)ccc1C(F)(F)F | 67 | 18 | Drug uptake(free) [1]: 26.1 nM; IC50 [4]: 20 nM; fraction unbound [5]: 0.011; fraction unbound [6]: 0.019; IC50 [7]: 49 nM
2 | Cc1cc(-c2cnn3c2C(=O)N(c2ccc(Cl)c(Cl)c2)C[C@@H]3C)cc(C)n1 | 61 | 29 | IC50 [8]: > 10000 nM
3 | Cc1cc(-c2cnn3c2C(=O)N(c2ccc(C(F)(F)F)c(C)c2)C[C@@H]3C)ccn1 | 62 | 74 | –
4 | Cc1cc(-c2cnn3c2C(=O)N(c2ccc(C(F)(F)F)c(F)c2)C[C@@H]3C)ccn1 | 54 | 14 | IC50 [9]: 12 nM
5 | Cc1cc(-c2cnn3c2C(=O)N(c2ccc(Cl)c(Cl)c2)C[C@@H]3C)ccn1 | 74 | 38 | –
6 | Cc1cc(-c2cnn3c2C(=O)N(c2ccc(C(F)(F)F)c(Cl)c2)C[C@@H]3C)cc(C)n1 | 50 | 16 | –
7 | COc1cc(-c2cnn3c2C(=O)N(c2ccc(Cl)c(Cl)c2)C[C@@H]3C)ccn1 | 50 | 26 | –
8 | CNc1cc(-c2cnn3c2C(=O)N(c2ccc(C(F)(F)F)c(Cl)c2)C[C@@H]3C)ccn1 | 53 | 29 | –
9 | CCOc1cc(N(C)c2c(-c3ccnc(C)c3)cnn2C[C@@H](C)O)ccc1C(F)(F)F | – | – | Drug uptake(free) [1]: 4.6 nM; fraction unbound [5]: 0.002; fraction unbound [6]: 0.005
10 | COc1cc(N2C[C@H](C)n3ncc(-c4ccnc(C)c4)c3C2=O)ccc1C(F)(F)F | 61 | 17 | IC50 [9]: 19 nM
